Laboratory results taken from patent US12285012B2, “Compositions comprising pyridine carboxylate herbicides with acetolactate synthase (ALS) inhibitor herbicides” (Corteva Agriscience LLC, priority 2018, dated 2025).
Where two headings read alike, the source gives them in different places.

Key:
[1] = system: spring barley (HORVS); assay type: in vivo, Hordeum vulgare; conditions: 10 g/ha
Experimental: (§1) The plants were grown for 7-36 days (d) in a greenhouse with an approximate 14-hour (h) photo-period which was maintained at about 23° C. during the day and 22° C. during the night. Nutrients and water were added on a regular basis and supplemental lighting was provided with overhead metal halide 1000-Watt lamps as necessary. The plants were employed for testing when they reached the second or third true leaf stage.
(§2) The emulsifiable concentrates also included a safener, cloquintocet-mexyl, at 120 grams active ingredient per liter (g ai/L), unless otherwise noted below.
(§3) Control plants were sprayed in the same manner with the solvent blank. All pyridine carboxylate herbicide (component a) application rates are given as “g ae/ha” and all ALS inhibitor (component b) application rates are given as “g ai/ha.”
(§4) The treated plants and control plants were placed in a greenhouse as described above and watered by sub-irrigation to prevent wash-off of the test compounds. After 20-22 d, the condition of the test plants as compared with that of the control plants was determined visually and scored on a scale of 0 to 100 percent where 0 corresponds to no injury and 100 corresponds to complete kill.

[2] = system: large crabgrass (DIGSA, Digitaria sanguinalis); assay: Greenhouse postemergence herbicidal effect; assay type: in vivo; conditions: DIGSA
Excerpt: (§5) Seeds of the desired test plant species were planted in a 90:10% v/v (volume/volume) mixture of PRO-MIX® BX (Premier Tech Horticulture, Quakertown, PA, USA) and PROFILE® GREENS GRADE™ (Profile Products LLC, Buffalo Grove, IL, USA) planting mixture, which typically has a pH of 5.2 to 6.2 and an organic matter content of at least 50 percent, in plastic pots with a surface area of 103.2 square centimeters (cm^2). In some aspects, to ensure good germination and healthy plants, a fungicide treatment and/or other chemical or physical treatment was applied. The plants were grown for 7-36 days (d) in a greenhouse with an approximate 14-hour (h) photo-period which was maintained at about 23° C. during the day and 22° C. during the night. Nutrients and water were added on a regular basis and supplemental lighting was provided with overhead metal halide 1000-Watt lamps as necessary. The plants were employed for testing when they reached the second or third true leaf stage.
(§6) Emulsifiable concentrates of each of each pyridine carboxylate herbicide (Compound A or Compound B) were prepared at 100 grams acid equivalent per liter (g ae/L). The emulsifiable concentrates also included a safener, cloquintocet-mexyl, at 120 grams active ingredient per liter (g ai/L), unless otherwise noted below. An aliquot of each emulsifiable concentrate was placed in a 25 mL glass vial and diluted with an aqueous mixture of 1.25% (v/v) ACTIROB® B esterified rapeseed oil (Bayer Crop Science, Research Triangle Park, NC, USA) or MSO® Concentrate with LECI-TECH® methylated soybean oil (Loveland Products, Loveland, CO, USA) to obtain concentrated stock solutions at the highest application rate for each herbicide, based upon a 12 milliliter (mL) application volume at a rate of 187 liters per hectare (L/ha). The concentrated stock solutions were further diluted with an aqueous mixture of 1.25% v/v ACTIROB® B or MSO® Concentrate with LECI-TECH® to obtain stock solutions at reduced application rates for each herbicide. Spray solutions of the herbicide combinations (Compound A or Compound B plus ALS herbicide) were prepared by adding weighed amounts or aliquots of the ALS herbicides to the stock solutions of Compound A or Compound B to form 12-mL spray solutions in two- or three-way combinations.
(§7) The spray solutions were applied to the plant material with an overhead Mandel track sprayer equipped with 8002E nozzles calibrated to deliver 187 L/ha over an application area of 0.503 square meters (m^2) at a spray height of 18 inches (43 centimeters (cm)) above the average plant canopy. Control plants were sprayed in the same manner with the solvent blank. All pyridine carboxylate herbicide (component a) application rates are given as “g ae/ha” and all ALS inhibitor (component b) application rates are given as “g ai/ha.”
as §4

[3] = system: broad-leaf dock (RUMOB, Rumex obtusifolius); assay: Greenhouse postemergence herbicidal effect; assay type: in vivo; conditions: for Obs % visual injury: RUMOB; for % visual injury, Obs: 8.75 g/ha
Excerpt: as §5, §6, §7, §4

[4] = system: spring wheat (TRZAS); assay type: in vivo, Triticum aestivum; conditions: for Obs % visual injury: TRZAS
Experimental: as §1, §2, §3, §4

[5] = system: Canadian thistle (CIRAR, Cirsium arvense); assay: Greenhouse postemergence herbicidal effect; assay type: in vivo; conditions: for Obs % visual injury: CIRAR
Experimental: as §1, §2, §3, §4

[6] = system: wild buckwheat (POLCO, Polygonum convolvulus); assay: Greenhouse postemergence herbicidal effect; assay type: in vivo; conditions: for Obs % visual injury: POLCO; for % visual injury, Obs: 8.75 g/ha
Experimental: as §1, §2, §3, §4

[7] = system: wild chamomile (MATCH, Matricaria chamomilla); assay: Greenhouse postemergence herbicidal effect; assay type: in vivo
Experimental: as §1, §2, §3, §4

[8] = system: wild pansy (VIOTR, Viola tricolor); assay: Greenhouse postemergence herbicidal effect; assay type: in vivo; conditions: for Obs % visual injury: VIOTR; for % visual injury, Obs: 8.75 g/ha
Experimental: as §1, §2, §3, §4

[9] = system: Russian thistle (SASKR, Salsola kali); assay: Greenhouse postemergence herbicidal effect; assay type: in vivo
Experimental: as §1, §2, §3, §4

[10] = system: chickweed (STEME, Stellaria media); assay: Greenhouse postemergence herbicidal effect; assay type: in vivo; conditions: for Obs % visual injury: STEME; for % visual injury, Obs: 8.75 g/ha
Experimental: as §1, §2, §3, §4

[11] = system: pigweed (AMARE, Amaranthus retroflexus); assay: Greenhouse postemergence herbicidal effect; assay type: in vivo; conditions: for Obs % visual injury: AMARE; for % visual injury, Obs: 8.75 g/ha
Experimental: as §1, §2, §3, §4

[12] = system: common lambsquarters (CHEAL, Chenopodium album L.); assay: Greenhouse postemergence herbicidal effect; assay type: in vivo; conditions: for Obs % visual injury: CHEAL
Experimental: as §5, with “In some aspects, to ensure good germination and healthy plants, a fungicide treatment and/or other chemical or physical treatment was applied.” left out
as §6, §7, §4

[13] = system: kochia (KCHSC, Kochia scoparia); assay: Greenhouse postemergence herbicidal effect; assay type: in vivo; conditions: for Obs % visual injury: KCHSC
Experimental: as §5, with “In some aspects, to ensure good germination and healthy plants, a fungicide treatment and/or other chemical or physical treatment was applied.” left out
as §6, §7, §4

[14] = system: velvetleaf (ABUTH, Abutilon theophrasti); assay: Greenhouse postemergence herbicidal effect; assay type: in vivo; conditions: 8.75 g/ha
Excerpt: as §5, §6, §7, §4

[15] = system: common sunflower (HELAN, Helianthus annuus); assay: Greenhouse postemergence herbicidal effect; assay type: in vivo; conditions: 8.75 g/ha
Excerpt: as §5, §6, §7, §4

[16] = system: soybean (GLXMA, Glycine max); assay: Greenhouse postemergence herbicidal effect; assay type: in vivo; conditions: 8.75 g/ha
Excerpt: as §5, §6, §7, §4

[17] = system: ivyleaf morningglory (IPOHE, Ipomoea hederacea); assay: Greenhouse postemergence herbicidal effect; assay type: in vivo; conditions: 8.75 g/ha
Excerpt: as §5, §6, §7, §4

[18] = system: wild mustard (SINAR, Sinapis arvensis); assay: Greenhouse postemergence herbicidal effect; assay type: in vivo
Experimental: as §1, §2, §3, §4

[19] = system: winter rape (BRSNW, Brassica napus); assay: Greenhouse postemergence herbicidal effect; assay type: in vivo
Experimental: as §1, §2, §3, §4

flupyrsulfuron
% visual injury, Obs [1]: 8% | Obs % visual injury ([2]; Flupyrsulfuron 10 g/ha): 0% | Obs % visual injury ([3]; Flupyrsulfuron 10 g/ha): 70% | % visual injury, Obs ([4]; 10 g/ha): 0% | Obs % visual injury ([4]; Flupyrsulfuron 10 g/ha): 15% | Obs % visual injury ([5]; Flupyrsulfuron 10 g/ha): 84% | Obs % visual injury ([6]; Flupyrsulfuron 10 g/ha): 91% | % visual injury, Obs ([7]; 10 g/ha): 83% | Obs % visual injury ([8]; Flupyrsulfuron 10 g/ha): 8% | % visual injury, Obs ([9]; 10 g/ha): 45% | Obs % visual injury ([10]; Flupyrsulfuron 10 g/ha): 80% | Obs % visual injury ([11]; Flupyrsulfuron 10 g/ha): 97% | % visual injury, Obs ([12]; 10 g/ha): 75% | Obs % visual injury ([12]; Flupyrsulfuron 10 g/ha): 63% | % visual injury, Obs ([13]; 10 g/ha): 15% | Obs % visual injury ([13]; Flupyrsulfuron 10 g/ha): 30%

CCS(=O)(=O)c1nc2ccccn2c1S(=O)(=O)NC(=O)Nc1nc(OC)cc(OC)n1 [Sulfosulfuron, sulfosulfuron]
% visual injury, Obs [14]: 30% | % visual injury, Obs [15]: 100% | % visual injury, Obs [16]: 85% | % visual injury, Obs [17]: 78% | % visual injury, Obs [3]: 0% | pest or weed control at 8.75 g/ha ([5]; Cirsium arvense, post-emergence, 8.75 g/ha, read-out: % visual injury, Obs): 5% | % visual injury ([5]; Sulfosulfuron 140 g/ha): 45% | % visual injury, Obs [6]: 5% | % visual injury ([6]; Sulfosulfuron 140 g/ha): 83% | % visual injury ([7]; Sulfosulfuron 140 g/ha): 73% | % visual injury ([18]; Sulfosulfuron 140 g/ha): 99% | % visual injury, Obs [8]: 55% | % visual injury, Obs [10]: 53% | % visual injury, Obs [11]: 40% | % visual injury ([11]; Sulfosulfuron 140 g/ha): 88% | % visual injury ([19]; Sulfosulfuron 140 g/ha): 98% | % visual injury, Obs ([12]; 8.75 g/ha): 0% | % visual injury ([12]; Sulfosulfuron 140 g/ha): 43% | pest or weed control at 8.75 g/ha ([13]; Bassia scoparia, post-emergence, 8.75 g/ha, read-out: % visual injury, Obs): 0% | % visual injury ([13]; Sulfosulfuron 140 g/ha): 8%

COc1cc(OC)nc(NC(=O)NS(=O)(=O)Cc2ccccc2C(=O)O)n1 [Bensulfuron, bensulfuron]
Obs % visual injury ([2]; Bensulfuron 16 g/ha): 0% | Obs % visual injury ([3]; Bensulfuron 16 g/ha): 60% | Obs % visual injury ([5]; Bensulfuron 16 g/ha): 20% | Obs % visual injury ([6]; Bensulfuron 16 g/ha): 80% | % visual injury, Obs ([7]; 16 g/ha): 38% | Obs % visual injury ([8]; Bensulfuron 16 g/ha): 8% | % visual injury, Obs ([9]; 16 g/ha): 0% | Obs % visual injury ([10]; Bensulfuron 16 g/ha): 8% | Obs % visual injury ([11]; Bensulfuron 16 g/ha): 20% | % visual injury, Obs ([12]; 16 g/ha): 10% | Obs % visual injury ([12]; Bensulfuron 16 g/ha): 10% | % visual injury, Obs ([13]; 16 g/ha): 5% | Obs % visual injury ([13]; Bensulfuron 16 g/ha): 20%

pyriminobac
Obs % visual injury ([2]; Pyriminobac methyl 30 g/ha): 0% | Obs % visual injury ([3]; Pyriminobac methyl 30 g/ha): 65% | Obs % visual injury ([4]; Pyriminobac methyl 30 g/ha): 0% | Obs % visual injury ([5]; Pyriminobac methyl 30 g/ha): 8% | Obs % visual injury ([6]; Pyriminobac methyl 30 g/ha): 80% | Obs % visual injury ([8]; Pyriminobac methyl 30 g/ha): 5% | Obs % visual injury ([10]; Pyriminobac methyl 30 g/ha): 15% | Obs % visual injury ([11]; Pyriminobac methyl 30 g/ha): 93% | Obs % visual injury ([12]; Pyriminobac methyl 30 g/ha): 20% | Obs % visual injury ([13]; Pyriminobac methyl 30 g/ha): 33%

halosulfuron
% visual injury, Obs [14]: 95% | % visual injury, Obs [15]: 100% | % visual injury, Obs [16]: 78% | % visual injury, Obs [17]: 0% | % visual injury, Obs [3]: 0% | % visual injury, Obs ([5]; 8.75 g/ha): 10% | % visual injury ([5]; Halosulfuron 8.75 g/ha): 40% | % visual injury, Obs [6]: 5% | % visual injury ([6]; Halosulfuron 8.75 g/ha): 63% | % visual injury ([7]; Halosulfuron 8.75 g/ha): 78% | % visual injury ([18]; Halosulfuron 8.75 g/ha): 95% | % visual injury, Obs [8]: 15% | % visual injury, Obs [10]: 0% | % visual injury, Obs [11]: 40% | % visual injury ([11]; Halosulfuron 8.75 g/ha): 95% | % visual injury ([19]; Halosulfuron 8.75 g/ha): 88% | % visual injury, Obs ([12]; 8.75 g/ha): 0% | % visual injury ([12]; Halosulfuron 8.75 g/ha): 10% | % visual injury, Obs ([13]; 8.75 g/ha): 0% | % visual injury ([13]; Halosulfuron 8.75 g/ha): 15%
